Laboratory results: US20080255111A1, “Tissue Factor Production Inhibitor” (SANKYO COMPANY LIMITED, priority 2004, published 2008)
Where two headings read alike, the source gives them in different places.

System: tissue factor mRNA in LPS-stimulated mouse peritoneal macrophages
Assay: Assay of mouse peritoneal macrophage tissue factor mRNA
Type: cell-based
Conditions: for mrna remaining at 1 µM: test compound 1 μM
Description: 3 ml of thioglycolate (Sigma Chemical) were administered into the abdominal cavity of male C57BL/6J mice (Charles River) followed 4 days later by intraperitoneal administration of 10 ml of phosphate-buffered saline (hereinafter PBS) containing heparin (Hishiyama Pharmaceutical) at a concentration of 5 U/ml and recovery of intraperitoneal macrophages using a syringe. After centrifuging the recovered macrophages at 1000 rpm and 4° C. for 5 minutes, the supernatant was discarded followed by suspending in RPMI 1640 medium (Gibco Laboratories) containing normal fetal bovine serum (hereinafter FBS) at a concentration of 10%. The macrophages were adjusted to a concentration of 4×10^6 cells/ml, disseminated in 1 ml aliquots in a 12-well plate, and cultured for 3 hours at 37° C. using a CO2 incubator. Subsequently, the cells were washed with PBS, and the medium was replaced with RPMI medium containing lipoprotein-deficient serum (hereinafter LPDS) (Sigma Chemical) at a concentration of 5%. Test compounds dissolved in dimethylsulfoxide (DMSO) at a concentration of 1 μM were added to make a final DMSO concentration of 0.1%, and after warming for 18 hours at 37° C., lipopolysaccharide (hereinafter LPS) (Sigma Chemical) was added to make a concentration of 100 ng/ml. The cells were recovered 6 hours later, RNA was extracted using the Rneasy Mini Kit (Qiagen), and after carrying out a reverse transcription reaction using the First-Strand cDNA Synthesis Kit (Amersham Biosciences), the expressed amounts of tissue factor mRNA and cyclophylin mRNA were measured by quantitative RT-PCR (TaqMan, Applied Biosystems 7700 Sequence Detector).
Quantitative RT-PCR for tissue factor was carried out using the aforementioned TF-1 and TF-2 as primers and TF-P as probes, while quantitative PCR for cyclophilin was carried out using the aforementioned Cyl-1 and Cyl-2 as primers and Cyl-P as probes. Both were carried out by warming for 2 minutes at 50° C. and then for 10 minutes at 95° C., followed by 40 warming cycles consisting of warming for 15 seconds at 95° C. and then for 1 minute at 60° C. The expressed amount of tissue factor mRNA was calculated as a relative value of the expressed amount of cyclophilin mRNA. The expressed amounts of tissue factor mRNA resulting from the test compounds at a concentration of 1 μM or 10 μM based on a value of 100 for the expressed amount of tissue factor mRNA in a case of treatment with DMSO at a concentration of […] are shown in Table 7.

[1] = 18 h, then LPS 100 ng/ml for 6 h, relative to cyclophilin mRNA, DMSO treatment = 100, read-out: Expressed Amount of Tissue Factor mRNA
[2] = test compound 10 μM, 18 h, then LPS 100 ng/ml for 6 h, relative to cyclophilin mRNA, DMSO treatment = 100, read-out: Expressed Amount of Tissue Factor mRNA

| Compound | mrna remaining at 1 µM [1] | mrna remaining at 10 µM [2] | also measured |
| --- | --- | --- | --- |
| O=S(=O)(c1ccccc1)N(CC(F)(F)F)c1ccc(C(O)(C(F)(F)F)C(F)(F)F)cc1 [Compound A, N-(2,2,2-Trifluoroethyl)-N-{4-[2,2,2-trifluoro-1-hydroxy-1-(trifluoromethyl)ethyl]phenyl}benzenesulfonamide, reference compound] | 20% |  |  |
| O=c1c2cc(OCCO)ccc2nc(Cc2ccccc2)n1-c1ccc(C(O)(C(F)(F)F)C(F)(F)F)cc1 [Compound E, 2-Benzyl-6-(2-hydroxyethoxy)-3-[4-[2,2,2-trifluoro-1-hydroxy-1-(trifluoromethyl)ethyl]phenyl]-4(3H)-quinazolinone] | 37.7% |  |  |
| O=c1c2cc(-c3ccccn3)ccc2nc(Cc2ccccc2)n1-c1ccc(C(O)(C(F)(F)F)C(F)(F)F)cc1 [Compound F, 2-Benzyl-6-(2-pyridyl)-3-[4-[2,2,2-trifluoro-1-hydroxy-1-(trifluoromethyl)ethyl]phenyl]-4(3H)-quinazolinone] | 76.9% |  |  |
| Cc1ccc(Cc2nc3ccc(-n4ccnc4)cc3c(=O)n2-c2ccc(C(O)(C(F)(F)F)C(F)(F)F)cc2C)cc1 [Compound G, 6-(1H-Imidazol-1-yl)-2-(4-methylbenzyl)-3-{2-methyl-4-[2,2,2-trifluoro-1-hydroxy-1-(trifluoromethyl)ethyl]phenyl}-4(3H)-quinazolinone] |  | 44.7% |  |
| COc1cc(-n2c(Cc3ccccc3)nc3cc(N4CCOCC4)c(F)cc3c2=O)ccc1C(O)(C(F)(F)F)C(F)(F)F [Compound H, 2-Benzyl-6-fluoro-3-{3-methoxy-4-[2,2,2-trifluoro-1-hydroxy-1-(trifluoromethyl)ethyl]phenyl}-7-(4-morpholinyl)-4(3H)-quinazolinone] |  | 56% |  |
| Cc1cc(C(O)(C(F)(F)F)C(F)(F)F)ccc1-n1c(Cc2cccnc2)nc2ccc(-n3cncn3)cc2c1=O [Compound I, 3-{2-Methyl-4-[2,2,2-trifluoro-1-hydroxy-1-(trifluoromethyl)ethyl]phenyl}-2-(3-pyridylmethyl)-6-(1H-1,2,4-triazol-1-yl)-4(3H)-quinazolinone] | 48.6% |  |  |
| C[C@H](CCC(=O)N(C)C)[C@H]1CCC2C3CC=C4C[C@@H](O)CC[C@]4(C)C3CC[C@@]21C (stereo partly drawn) [Compound J, N,N-Dimethyl-3β-hydroxycholenamide, reference compound] |  |  | mrna remaining at 10 µM (6 h, read-out: Expressed Amount of Tissue Factor mRNA): 39.3% |
| COc1cc2nc(Cc3ccsc3)n(-c3cc(C(O)(C(F)(F)F)C(F)(F)F)ccc3C)c(=O)c2cc1Cl [Reference Example 1, 6-Chloro-7-methoxy-3-{2-methyl-5-[2,2,2-trifluoro-1-hydroxy-1-(trifluoromethyl)ethyl]phenyl}-2-(3-thienylmethyl)-4(3H)-quinazolinone] |  | 41.1% |  |
| COc1cc2nc(Cc3cccc(F)c3)n(-c3cc(C(O)(C(F)(F)F)C(F)(F)F)ccc3C)c(=O)c2cc1OC [Reference Example 2, 2-(3-Fluorobenzyl)-6,7-dimethoxy-3-{2-methyl-5-[2,2,2-trifluoro-1-hydroxy-1-(trifluoromethyl)ethyl]phenyl}-4(3H)-quinazolinone] |  | 45.2% |  |
| CC(=O)N(C)c1ccc(OCc2cc3ccc(F)cc3n2C(=O)OC(C)(C)C)cc1 [Reference Example 3, tert-Butyl 2-({4-[acetyl(methyl)amino]phenoxy}methyl)-6-fluoro-1H-indole-1-carboxylate] | 67.9% |  |  |
| CN(C(=S)C1CC1)c1ccc(OCc2cc3c(F)cc(F)cc3n2C(=O)OC(C)(C)C)cc1 [Reference Example 4, tert-Butyl 2-({4-[(cyclopropylcarbonothioyl)(methyl)amino]phenoxy}methyl)-4,6-difluoro-1H-indole-1-carboxylate] | 57.6% |  |  |
| CN(C(=O)C1CC1)c1ccc(OCc2ccc(C(F)(F)F)c(O)c2C(=O)OC(C)(C)C)cc1 [Reference Example 5, tert-Butyl 6-({4-[(cyclopropylcarbonyl)(methyl)amino]phenoxy}methyl)-2-hydroxy-3-(trifluoromethyl)benzoate] | 64.3% |  |  |
